Experimental data reported in patent publication US20250041382A1, “ANTIVIRAL COMPOSITION COMPRISING OCTOMININ” (priority 2023, published 2025).
“And” between values parts separate entries of the source, which are not always exact repeats. Equal values may be shown once. Peptide text beside a SMILES is read from it.

What was measured:
VHSV (F1Wa05 strain) = assay: Cytopathic effect (CPE) reduction assay, VHSV in FHM cells
Description: (§1) Specifically, three major fish pathogenic viruses VHSV (F1Wa05 strain), IHNV (RtPy91 strain), and IPNV (VR299 strain) were used to study the antiviral activity of Octominin. Octominin at various concentrations reacted with an equal amount of virus (infectious titer: 200 TCID50/mL) at 15° C. for 1 hour. Thereafter, the reactant was overlaid onto quadruplicate FHM cells in a 96-well plate (1×10^5 cells/mL) and incubated for 96 hours.
(§2) CPE was scored by optical microscopy using a DIAPHOT 300 inverted microscope (Nikon Cooperation, Tokyo, Japan) (score 0, 0% CPE; score 1, 10 to 20% CPE; score 2, 30 to 40% CPE; score 3, 50 to 60% CPE; score 4, 70 to 80% CPE; and score 5, 90 to 100%). The results were expressed as a 50% effective concentration (EC50) and calculated using Microsoft Excel software. Ribavirin, a known broad-spectrum antiviral agent, was used as a positive control group. The antiviral activity of Octominin was evaluated by calculation using Equation SI (selective index)=CC50/EC50.

in vitro [1] = type: cell-based
IPNV (VR299 strain) = assay: microbe, parasite or virus in culture
Description: as §1, §2

IHNV (RtPy91 strain) = assay: microbe, parasite or virus in culture
Description: as §1, §2

in vitro [2] = type: cell-based; details: fathead minnow
[3] = fathead minnow (Pimephales promelas), 96 h

EC50 (VHSV (F1Wa05 strain); Viral hemorrhagic septicemia virus, 96 h) [nM]	Compound	SI (selective index)=CC50/EC50 (VHSV (F1Wa05 strain); [3])	CC50 (in vitro [1]; Chinook salmon (Oncorhynchus tshawytscha))	SI (selective index)=CC50/EC50 (IPNV (VR299 strain); Chinook salmon (Oncorhynchus tshawytscha), 96 h)	SI (selective index)=CC50/EC50 (IHNV (RtPy91 strain); [3])	CC50 (in vitro [2]) [nM]	selectivity ratio at 96 h (VHSV (F1Wa05 strain); fathead minnow, FHM cells infected with VHSV (F1Wa05 strain))	CC50 (in vitro [1]; Chinook salmon) [nM]	selectivity ratio at 96 h (IPNV (VR299 strain); Chinook salmon)	EC50 (IPNV (VR299 strain); Infectious pancreatic necrosis virus, CHSE-214) [nM]	EC50 (IHNV (RtPy91 strain); Infectious hematopoietic necrosis virus, 96 h) [nM]	selectivity ratio at 96 h (IHNV (RtPy91 strain); fathead minnow)
–	CC[C@H](C)[C@H](NC(=O)[C@H](C)NC(=O)[C@H](CCCCN)NC(=O)CNC(=O)[C@H](C)NC(=O)[C@H](Cc1c[nH]cn1)NC(=O)[C@@H](NC(=O)[C@H](C)NC(=O)CNC(=O)[C@H](CCCNC(=N)N)NC(=O)[C@@H](NC(=O)[C@H](CC(C)C)NC(=O)[C@H](Cc1c[nH]c2ccccc12)NC(=O)CN)[C@@H](C)CC)[C@@H](C)CC)C(=O)N[C@@H](Cc1c[nH]cn1)C(=O)NCC(=O)N[C@@H](CC(C)C)C(=O)N[C@H](C(=O)N[C@@H](Cc1c[nH]cn1)C(=O)N[C@@H](CCCNC(=N)N)C(=O)N[C@@H](CCCNC(=N)N)C(=O)N[C@@H](CCCNC(=N)N)C(=O)N[C@@H](Cc1c[nH]cn1)C(=O)O)[C@@H](C)CC [Octominin] (H-GWLIRGAIHAGKAIHGLIHRRRH-OH)	2.9	1870 µg/mL and 990 µM	2.0	4.9	–	–	–	–	–	–	–
270	NC(=O)c1ncn([C@@H]2O[C@H](CO)[C@@H](O)[C@H]2O)n1 [Ribavirin]	–	–	–	–	962000	3560	121000	162	750	550	1750
